# Assay results published in patent US9981916B2 (Genentech, Inc., priority 2013, dated 2018).
# Molecular target: T1, RORc ligand binding domain (Homo sapiens, UniProt P51449)
# T1 construct: host or cells: E. coli
# T1 sequence (P51449 269-508 limits assumed): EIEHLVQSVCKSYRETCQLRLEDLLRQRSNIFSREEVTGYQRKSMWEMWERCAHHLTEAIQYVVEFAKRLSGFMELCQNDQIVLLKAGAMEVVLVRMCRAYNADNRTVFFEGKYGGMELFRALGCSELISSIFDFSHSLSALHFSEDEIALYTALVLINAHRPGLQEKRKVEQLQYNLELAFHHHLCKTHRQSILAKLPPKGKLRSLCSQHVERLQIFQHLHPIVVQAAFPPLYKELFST
# Assay: In vitro RORc ligand binding assay (25-[3H]hydroxycholesterol displacement, filter binding)
# Conditions: 6 nM 25-[3H]hydroxycholesterol, 0.6 ug/mL RORc receptor, 3 h at 25° C.
# Summary of the method: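 Compounds in 5% DMSO, either dose-response or screened at 1 and 10 uM, competed with 6 nM 25-[3H]hydroxycholesterol for 0.6 ug/mL RORc over 3 h at 25° C (HEPES pH 7.4, NaCl, MgCl2, DTT, BSA buffer). Bound tracer was filter-harvested and counted; nonspecific binding came from 1 uM 25-hydroxycholesterol.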
row,IC50,Structure (SMILES)
1,23 nM,"CC1(C)[C@H]2CC[C@]1(c1cccnc1)c1nnc(-c3c(F)cccc3F)cc12 [Example 154, (5R,8S)-3-(2,6-difluorophenyl)-9,9-dimethyl-8-(pyridin-3-yl)-5,6,7,8-tetrahydro-5,8-methanocinnoline]"
2,683 nM,"CC(=O)O[C@H]1C[C@@H]2c3cc(-c4ccccc4F)nnc3[C@@]1(C)C2(C)C [Example 19, (5S,7S,8R)-3-(2-fluorophenyl)-8,9,9-trimethyl-5,6,7,8-tetrahydro-5,8-methanocinnolin-7-yl acetate]"
3,5650 nM,"Cc1noc(NC(=O)[C@]23CC[C@H](c4cc(-c5c(F)cccc5F)nnc42)C3(C)C)n1 [Example 85, (5S,8S)-3-(2,6-difluorophenyl)-9,9-dimethyl-N-(3-methyl-1,2,4-oxadiazol-5-yl)-6,7-dihydro-5,8-methanocinnoline-8(5H)-carboxamide]"
4,3120 nM,"CC1(C)[C@@H]2CC[C@@]1(C(=O)N1CCC(C(N)=O)C1)c1nnc(-c3c(F)cccc3F)cc12 (stereo partly drawn) [Example 249, 1-((5S,8S)-3-(2,6-difluorophenyl)-9,9-dimethyl-5,6,7,8-tetrahydro-5,8-methanocinnoline-8-carbonyl)pyrrolidine-3-carboxamide]"
5,40 nM,"COc1cnc([C@@]23CC[C@@H](c4cc(-c5c(F)cccc5F)nnc42)C3(C)C)o1 [Example 195, 2-((5R,8R)-3-(2,6-difluorophenyl)-9,9-dimethyl-5,6,7,8-tetrahydro-5,8-methanocinnolin-8-yl)-5-methoxyoxazole]"
6,756 nM,"CC1(C)[C@@H]2CC[C@@]1(Cc1noc(CO)n1)c1nnc(-c3ccccc3F)cc12 [Example 45, (3-{[(5S,8S)-3-(2-fluorophenyl)-9,9-dimethyl-6,7-dihydro-5,8-methanocinnolin-8(5H)-yl]methyl}-1,2,4-oxadiazol-5-yl)methanol]"
7,892 nM,"CN1C[C@@H]2C[C@H]1CN2C(=O)[C@]12CC[C@H](c3cc(-c4c(F)cccc4F)nnc31)C2(C)C [Example 239, ((5S,8S)-3-(2,6-difluorophenyl)-9,9-dimethyl-5,6,7,8-tetrahydro-5,8-methanocinnolin-8-yl)((1S,4S)-5-methyl-2,5-diazabicyclo[2.2.1]heptan-2-yl)methanone]"
8,1200 nM,"CC(=O)O[C@@H]1C[C@H]2c3cc(-c4ccccc4F)nnc3[C@]1(C)C2(C)C [Example 20, (5R,7R,8S)-3-(2-fluorophenyl)-8,9,9-trimethyl-5,6,7,8-tetrahydro-5,8-methanocinnolin-7-yl acetate]"
9,6 nM,"CCN(C[C@@]12CC[C@@H](c3cc(-c4c(F)cccc4F)nnc31)C2(C)C)c1ccccn1 [Example 163, N-(((5R,8S)-3-(2,6-difluorophenyl)-9,9-dimethyl-5,6,7,8-tetrahydro-5,8-methanocinnolin-8-yl)methyl)-N-ethylpyridin-2-amine]"
10,108 nM,"CCN(C[C@@]12CC[C@@H](c3cc(-c4c(F)cccc4F)nnc31)C2(C)C)c1nccc(=O)[nH]1 [Example 302, 2-((((5R,8S)-3-(2,6-difluorophenyl)-9,9-dimethyl-5,6,7,8-tetrahydro-5,8-methanocinnolin-8-yl)methyl)(ethyl)amino) pyrimidin-4(3H)-one]"
11,134 nM,"Cc1ncoc1[C@@]12CC[C@@H](c3cc(-c4c(F)cccc4F)nnc31)C2(C)C [Example 118, (5R,8R)-3-(2,6-difluorophenyl)-9,9-dimethyl-8-(4-methyl-1,3-oxazol-5-yl)-5,6,7,8-tetrahydro-5,8-methanocinnoline]"
12,124 nM,"CON(C)C(=O)[C@]12CC[C@H](c3cc(-c4c(F)cccc4F)nnc31)C2(C)C [Example 55, (5S,8S)-3-(2,6-difluorophenyl)-N-methoxy-N,9,9-trimethyl-6,7-dihydro-5,8-methanocinnoline-8(5H)-carboxamide]"
13,1460 nM,"CC1(C)[C@H]2CC[C@]1(N(CC(F)F)C(=O)CO)c1nnc(-c3c(F)cccc3F)cc12 [Example 322, N-(2,2-difluoroethyl)-N-((5R,8R)-3-(2,6-difluorophenyl)-9,9-dimethyl-5,6,7,8-tetrahydro-5,8-methanocinnolin-8-yl)-2-hydroxyacetamide]"
14,350 nM,"COCC12CCC(c3cc(-c4ccccc4F)nnc31)C21CC1 (stereo not drawn) [Example 40, 3′-(2-fluorophenyl)-8′-(methoxymethyl)-5′,6′,7′,8′-tetrahydro-spiro[cyclopropane-1,9′-[1,2]diaza[5,8]methanocinnoline]]"

row,Structure (SMILES),IC50
1,"CC1(C)[C@@H]2CC[C@@]1(C(=O)N1C3CCC1CC3)c1nnc(-c3c(F)cccc3F)cc12 [Example 247, 7-azabicyclo[2.2.1]heptan-7-yl((5S,8S)-3-(2,6-difluorophenyl)-9,9-dimethyl-5,6,7,8-tetrahydro-5,8-methanocinnolin-8-yl)methanone]",1110 nM
